# Results published in US5212165A, “Method for rehabilitating the vasorelaxant action of the coronary arteries impaired through atherosclerosis or hypercholesterolemia employing an ACE inhibitor” (E. R. Squibb & Sons, Inc., priority 1989, dated 1993).
# “Also recorded” adds a separate entry of the source.
# Assays:
# [1] = system: vascular relaxation in response to EN-D (ACh) and EN-I (Na nitroprusside) agonists; settings: oral; rats; cited from earlier work
# [2] = system: bovine aortic endothelial cells; settings: cited from earlier work
# [3] = system: rat aortic rings; settings: Hartich et al, Shultz et al, cited from earlier work
# [4] = system: phenylephrine-contracted isolated iliac arteries; experiment: Acetylcholine-induced relaxation of phenylephrine-contracted isolated iliac arteries from cynomolgus monkeys; design: species or system cynomolgus (Macaca fascicularis) monkeys; settings: for maximum force generated in response to phenylephrine (before acetylcholine): mean±SEM
# Excerpt: (§1) Twenty-four male cynomolgus (Macaca fascicularis) monkeys were divided into four groups of six animals each. During the course of the study, one of the control monkeys was sacrificed due to ill health unrelated to the study. Each group was fed a different diet for six months. The control group ate a normal diet of monkey biscuit. The cholesterol group ate a specially formulated monkey diet containing cholesterol. The cholesterol +low captopril group ate the cholesterol diet supplemented with captopril (50 mg/kg divided into two daily doses). The cholesterol+high captopril group ate the cholesterol diet and a higher total dose of captopril (100 mg/kg divided into two daily doses).
# (§2) The monkeys were sedated with an intramuscular injection of ketamine (10 mg/kg), then anesthetized with pentobarbital (25 mg/kg). The iliac arteries were carefully dissected, cleaned of surrounding connective tissue, and refrigerated overnight for use the following day.
# (§3) On the day of the experiment, three iliac rings (3 mm wide) from each animal were cut and mounted for isometric force recording. Each ring was attached to a micrometer for the control of muscle length and to a Grass FT.03 force transducer and Grass 7D recorder. The rings were placed in warm (37° C.), oxygenated, physiological salt solution (PSS) of the following composition (in mM): 140.0 NaCl, 4.7 KCl, 1.2 MgSO4, 1.6 CaCl2, 1.2 NaH2 PO4, 5.6 D-glucose, 2.0 2-(N-morpholino)propanesulfonic acid (MOPS, pH 7.4 at 37° C.), and 0.02 Na2 -ethylenediaminetetraacetic acid (EDTA). The rings were stretched to a preload of 5 g during a 2 hour equilibration period, then stimulated with 1 μM phenylephrine to test for viability and relaxed with 100 nM acetylcholine to test for endothelial function. Stock solutions of phenylphrine, acetylcholine, propranolol, and sodium nitroprusside were prepared daily in water; nifedipine stock solutions were prepared daily in ethanol.
# (§4) Alpha-adrenoceptor and endothelial cell function were examined in the third ring from each monkey. In the presence of 0.1 μM propranolol, a cumulative concentration-response curve to phenylephrine was obtained, then the phenylephrine was washed out of the baths and the rings were allowed to relax completely. The rings were subsequently contracted with an EC50 concentration of phenylephrine (1 μM) and, following stabilization of the contraction, the rings were treated with increasing concentrations of acetylcholine, followed by 100 nM sodium nitroprusside.
# (§5) Data are presented as mean±SEM. The IC50 and EC50 values were estimated by linearly interpolating from the concentration-response curves. The EC50 values for each ring were used to determine the means for each treatment group.
# For each monkey, the EC50 for acetylcholine relaxation was calculated by linearly interpolating from the concentration-response curves. When 50% relaxation was not achieved, the value of the EC50 was set to 30 μM a value larger than any of the experimental concentrations of acetylcholine).
# Linear contrast of mean ranks in the groups were constructed with a variance estimate for the contrast based on the Kruskal-Wallis statistic (Dunn 1964).
# In the analyses, the following coefficients were employed: i) for an overall test, the coefficients were 3 for the cholesterol group, 1 for the control group, -1 for the cholesterol+low captopril group, and -3 for the cholesterol+high captopril group, based on prior expectations of likely results; ii) for a test of the cholesterol effect, the coefficients were 1 for the cholesterol group, -1 for the control group, 0 for the cholestrol+low captopril group, and 0 for the cholesterol+high captopril group; iii) for a test of the captopril effect, the coefficients were 0 for the cholesterol group, 1 for the […], 0 for the cholesterol+low captopril group, and -1 for the cholesterol+high captopril group.
# All statistical results reported are based on one-sided tests. […]
# [5] = system: guinea pig or rat lungs; settings: guinea pig lungs; cited from earlier work
# [6] = system: alpha-adrenoceptor (isolated iliac arteries); experiment: Contractile responses to phenylephrine of isolated iliac arteries from cynomolgus monkeys; design: species or system cynomolgus (Macaca fascicularis) monkeys
# Excerpt: as §1, §2, §3, §4, §5
# Phenylephrine concentration-response curves were obtained in iliac rings from all groups of monkeys.
# [7] = system: patients with Raynaud's phenomenon; settings: cited from earlier work
compound,measurement,setting,value
"C[C@H](CS)C(=O)N1CCC[C@H]1C(=O)O [captopril, 1-[(2S)-3-mercapto-2-methylpropionyl]-L-proline]",vascular relaxations in response to EN-D (ACh) and EN-I (Na nitroprusside) agonists,[1],differentially affected vascular relaxations
same,release of prostacyclin or EDRF induced by bradykinin,[2]; captopril 10 mu.K (so in the source),did not affect the release
same,release of EDRF (direct),[2],ineffective as releasers of EDRF
same,endothelium dependent relaxation of normal rat aortic rings,[3]; in vitro,enhance endothelium dependent relaxation
same,effect of acetylcholine in rat aortic rings after captopril feeding alone,[3]; without cholesterol,potentiate the effects of acetylcholine
same,EC50 at 100 mg/kg,"[4]; Macaca fascicularis, Cholesterol + High Captopril (100 mg/kg daily, six months), N 5, non-responder excluded, Mean ± SEM",100 ± 10 nM
same,endothelium-dependent vasorelaxant effects,[4]; arteries from hypercholesterolemic and atherosclerotic monkeys,enhance endothelium-dependent vasorelaxant effects
same,shift of EC50 concentration for acetylcholine,[4]; captopril as compared with cholesterol alone,statistically significant effect of captopril as compared with cholesterol; also recorded: significantly shifted the EC50 concentration for acetylcholine to the left
same,rings not showing 50% relaxation in response to acetylcholine,[4]; cholesterol diet and low dose captopril,One ring did not show 50% relaxation
same,iliac rings responsive to acetylcholine,"[4]; cholesterol fed, high daily dose of captopril, six animals",Five of the iliac rings
same,maximum force generated in response to phenylephrine (before acetylcholine),"[4]; cholesterol+high captopril group, non-responders excluded",11.9 ± 2.1 g
same,maximum force generated in response to phenylephrine (before acetylcholine),[4]; cholesterol+low captopril group,12.4 ± 2.2 g
same,potency and efficacy of acetylcholine in iliac rings from cholesterol-fed monkeys which received captopril,[4]; vs cholesterol diet without captopril,significantly more potent and efficacious
same,effect on removal of endothelin by guinea pig lungs,[5],without being affected by captopril
same,Max Force (phenylephrine-induced contraction),"[6]; Cholesterol + High Captopril (100 mg/kg daily, six months), Mean ± SEM",19.2 ± 2.2 g
same,Max Force (phenylephrine-induced contraction),"[6]; Cholesterol + Low Captopril (50 mg/kg daily, six months), Mean ± SEM",18.4 ± 2.8 g
same,EC50 at 100 mg/kg,"[6]; Macaca fascicularis, Cholesterol + High Captopril (100 mg/kg daily, six months), Mean ± SEM, read-out: EC50 (phenylephrine-induced contraction)",1300 ± 600 nM
same,EC50 at 50 mg/kg,"[6]; Macaca fascicularis, Cholesterol + Low Captopril (50 mg/kg daily, six months), Mean ± SEM, read-out: EC50 (phenylephrine-induced contraction)",1000 ± 200 nM
same,effect on in vitro response of iliac arteries to phenylephrine,"[6]; cholesterol-fed monkeys, with captopril",neither cholesterol nor captopril affected
same,marked subjective improvement,"[7]; 20 patients with primary or secondary Raynaud's phenomenon, Trubestein et al",14 cases
same,incidence or severity of peripheral vasospasm,"[7]; Raynaud's with hypertension secondary to scleroderma, Coffman",does not decrease the incidence or severity of peripheral vasospasm
same,digital circulation,"[7]; one patient, Miyazaki et al",improved a patient's digital circulation
same,benefit in Raynaud's phenomenon and chronic leg ulceration,"[7]; one patient, Rustin et al 1989",no benefit
same,cutaneous blood flow,"[7]; p.o., 15 patients, placebo-controlled, double-blind cross-over, Rustin et al 1987",significantly improved cutaneous blood flow
same,frequency or severity of attacks,"[7]; p.o., 15 patients, Rustin et al 1987",no effect on frequency or severity of attacks
same,frequency and severity of ischemic attacks,"[7]; patients with Raynaud's disease, Tosi et al",significantly decreased the frequency and the severity of ischemic attacks
same,ischemic attacks in patients with scleroderma,"[7]; patients with scleroderma, Tosi et al",did not affect the attacks
